From patent publication US20210030757A1, “METHOD OF TREATMENT AND COMPOSITIONS COMPRISING A DUAL P13K DELTA-GAMMA KINASE INHIBITOR AND A CORTICOSTEROID” (priority 2014, published 2021)

Tests used:
[1] = tested on: human neutrophils from healthy volunteers; test: CSE-induced IL-8 release in peripheral blood neutrophils from healthy non-smokers; format: cell-based; settings: stimulus CSE 5%, 6 h, mean ± SEM; for IC50: Homo sapiens, Neutrophil, read-out: −log IC50 (IL-8 release) (converted)
Experimental: (§1) Neutrophils were isolated from peripheral venous blood by standard laboratory procedures. In brief, peripheral venous blood was mixed with dextran 500 at 3% (in 0.9% saline) in a proportion of 2:1. This mixture was incubated at room temperature for 30 min until erythrocytes were sedimented. The upper phase was carefully collected and added on Ficoll-Paque Histopaque 1077 (Amershan Pharmacia Biotech, Barcelona, Espana) density gradient in a proportion of 3:1. The two phases generated were centrifuged at 150 g, 4° C. for 30 min. Thus, the pellet obtained (which is consisted a mixture of neutrophils and low proportion of residual erythrocytes and traces of eosinophils and basophils) was resuspended in an erythrocyte lysis buffer (Biolegend, UK) for 5 min in ice. Cell suspension was washed two times with phosphate buffer (PBS). […] Neither purity nor viability was affected in the study's different experimental conditions.
(§2) CSE was prepared as follows: Briefly, the smoke of a research cigarette (2R4F; Tobacco Health Research, University of Kentucky, Ky., USA) was generated by a respiratory pump (Apparatus Rodent Respirator 680; Harvard, Germany) through a puffing mechanism related to the human smoking pattern (3 puff/min; 1 puff 35 ml; each puff of 2 s duration with 0.5 cm above the filter) and was bubbled into a flask containing 25 ml of pre-warmed (37° C.) Roswell Park Memorial Institute (RPMI)-1640 culture medium. The CSE solution was sterilized by filtration through a 0.22-μm cellulose acetate sterilizing system (Corning, N.Y.). The resultant CSE solution was considered to be 100% CSE and was used for experiments within 30 min of preparation. CSE 10% corresponds approximately to the exposure associated with smoking two packs per day. The quality of the prepared CSE solution was assessed based on the absorbance at 320 nm, which is the specific absorption wavelength of peroxynitrite. Stock solutions with an absorbance value of 3.0±0.1 were used. To test for cytotoxicity from CSE, isolated neutrophils were treated with CSE concentrations of up to 5% for […].
(§3) Isolated human neutrophils from healthy volunteers and COPD patients were incubated with Compound A (0.01 nM-100 μM) and Dexamethasone (0.1 nM-1 μM) or vehicle for 30 minutes before incubation with or without CSE 5% for 6 hours in standard cell culture conditions (37° C. and 5% CO2). Supernatants were collected to measure different inflammatory markers.
(§4) IL-8 was measured by ELISA using a commercially available kit.
(§5) Experiments were done in triplicate in […] three patients per experimental condition.
(§6) Neutrophils from healthy and COPD patients were stimulated with CSE 5% in the presence of Compound A (0.01 nM-100 μM) or dexamethasone (DEX; 0.1 nM-1 μM) for 6 h and IL-8 supernatants were measured.

PI3Kγ = PI3Kγ mRNA expression in peripheral neutrophils from COPD patients (RT-PCR); format: cell-based, human; settings: CSE 5%; 10 nM or 100 nM Compound A
Experimental: (§7) Measurement of basal RNA expression of corticosteroid resistant mediators: Total RNA was isolated from peripheral human neutrophils from COPD patients in basal conditions and after experimental conditions. Cells were homogenized and RNA was extracted using TriPure® Isolation Reagent (Roche, Indianapolis, USA). The reverse transcription was performed in 300 ng of total RNA with TaqMan reverse transcription reagents kit (Applied Biosystems, Perkin-Elmer Corporation, CA, USA). 1.5 μl of result cDNA was amplified with specific predesigned primers (Applied Biosystems) for MIF (cat no Hs00236988), MKP-1 (cat no Hs00610256), PI3K-δ (cat n° Hs00192399), PI3Kγ (cat n° Hs00277090) and GAPDH (cat no 4310884E) as endogenous control in a 7900HT Fast Real-Time PCR System (Applied Biosystem) using Universal Master Mix (Applied Biosystems). Relative quantification of these different transcripts was determined with the 2^−ΔΔct method and normalized to control groups.
(§8) mRNA expression of the MIF, MKP-1, PI3K-δ and PI3Kγ genes was measured in basal conditions and at the end of the experiments.
(§9) Experiments were done in triplicate in at least three patients per experimental condition.

Balb/c mice [2] = test: Chronic cigarette smoke induced cell infiltration in male Balb/c mice (BALF cells and cytokines); format: in vivo
Experimental: Animals were acclimatized for seven days prior to the start of the experiment. Animals were randomly distributed to various groups based on their body weights. Mice were exposed to the mainstream smoke of 2 cigarettes from day 1 to day 11. Exposure to the smoke of each cigarette lasted for 10 min (each cigarette was completely burned in the first two minutes, followed by an air flow with animal ventilator) and were exposed for the next 20 min with fresh room air. After every second cigarette an additional break of 20 min with exposure to fresh room air was conducted. Control animals were exposed to the room air chamber. Test compound was administered by the intranasal route as suspension from day 12 to day 14 before 30 mins whole body smoke exposure. Mice were exposed to the mainstream smoke of 1 cigarette from day 12 to day 14. On day 15, 24 hours after the last cigarette smoke (CS) exposure animals were exsanguinated under anaesthesia, and the trachea was cannulated and the lungs were lavaged with 0.5 ml aliquots of heparinised PBS (1 unit/ml) four times through tracheal cannula (total volume 2 ml). Bronchioalveolar (BAL) collected was stored at 2-8° C. until assayed for total cell and differential leukocyte count. BAL fluid was centrifuged (500×g for 10 min) and the resulting cell pellet was resuspended in 0.5 ml of heparinised saline. The total number of white blood cells was determined in BAL fluid and blood using a blood cell counter and adjusted to 1×10^6 cell/ml. Differential cell count was calculated manually. Forty microliters of the cell suspension was centrifuged using cytospin 3 to prepare a cell smear. The cell smear was stained with a blood staining solution for differentiation and microscopically observed by identifying each cell according to its morphological characteristics. The number of each cell type among 300 white blood cells in the cell smear was determined and expressed as a percentage, and the number of neutrophils and macrophages in each BAL fluid were calculated. In addition BAL supernatant were analysed for various cytokinines using ELISA assay.

MKP-1 = MKP-1 mRNA expression in peripheral neutrophils from COPD patients (RT-PCR); format: cell-based, human; settings: CSE 5%; 10 nM or 100 nM Compound A
Experimental: as §7, §8, §9

Balb/c mice [3] = test: Reversal of corticosteroid insensitivity in chronic cigarette smoke induced cell infiltration in male Balb/c mice; format: in vivo; settings: Mus musculus, Macrophage, inhaled or nasal; murine chronic COPD model; intranasal; read-out: ED50 (cell count in BAL, macrophage infiltration)
Experimental: Animals were acclimatized for seven days prior to the start of the experiment. Animals were randomly distributed to various groups based on their body weights. Mice were exposed to the mainstream smoke of 2 cigarettes from day 1 to day 11. Exposure to the smoke of each cigarette lasted for 10 min (each cigarette was completely burned in the first two minutes, followed by an air flow with animal ventilator) and were exposed for the next 20 min with fresh room air. After every second cigarette an additional break of 20 min with exposure to fresh room air was conducted. Control animals were exposed to the room air chamber. Corticosteroid, fluticasone was administered by intranasal route from day 6 to day 11 before 30 mins whole body smoke exposure. Mice were exposed to the mainstream smoke of 1 cigarette from day 12 to day 14. […] The total number of white blood cells was determined in BAL fluid and blood using a blood cell counter and adjusted to 1×10^6 cell/ml. Differential cell count was calculated manually. […] The number of each cell type among 300 white blood cells in the cell smear was determined and expressed as a percentage, and the number of neutrophils and macrophages in each BAL fluid were calculated. In addition BAL supernatant were analysed for various cytokines using ELISA assay.

PI3K = PI3K activity (PIP3 production, PI3-Kinase Activity ELISA) in neutrophils from COPD patients; format: cell-based, human; settings: Compound A 10 nM, 1 h, CSE 5% 30 min
Experimental: Measurement of Pi3K isoforms: To measure PI3K activity, neutrophils from COPD patients were isolated and incubated with Compound A at 10 nM for 1 h. Then cells were stimulated with CSE 5% for 30 min. After cell stimulation, neutrophils were centrifuged and total protein was extracted from neutrophils. Total protein amount was measured using The Bio-Rad assay (Bio-Rad Laboratories Ltd., Herts, UK) to ensure equal amount. PI3K activity was measured using the PI3-Kinase Activity ELISA: Pico (cat. no k-1000 s, Echelon Bioscience, Salt Lake City, USA) according to the manufacturer's protocol. In brief, PI3-K reactions were run with the Class I PI3-K physiological substrate PI(4,5)P2 (PIP2). The enzyme reactions, PIP3 standards and controls were then mixed and incubated with PIP3 binding protein that is highly specific and sensitive to PIP3. This mixture was then transferred to a PIPI3-coated microplate for competitive binding. Afterwards, a peroxidase-linked secondary detector and colorimetric detection was used to detect the amount of PIP3 produced by PI3-K through comparing the enzyme reactions with a PIP3 standard curve.
as §9

MIF = MIF mRNA expression in peripheral neutrophils from COPD patients (RT-PCR); format: cell-based, human; settings: CSE 5%; Compound A exposure
Experimental: as §7, §8, §9

[4] = tested on: human neutrophils from COPD patients; test: CSE-induced IL-8 release in peripheral blood neutrophils from COPD patients; format: cell-based; settings: stimulus CSE 5%, 6 h, mean ± SEM; for IC50: Homo sapiens, Neutrophil, read-out: −log IC50 (IL-8 release) (converted)
Experimental: as §1, §2, §3, §4, §5, §6

`CC(C)Oc1ccc(-c2nn([C@@H](C)c3oc4cccc(F)c4c(=O)c3-c3cccc(F)c3)c3ncnc(N)c23)cc1F` [Compound A] was tested, and the IC50 [1] was 295 nM, the “Maximal % Inhibition of IL-8 release” value [1] was 97.4±5.3% and the “CSE induced PI3Kγ expression (mRNA)” value (PI3Kγ) was “significant reduction”. The “Macrophage count in BAL fluid” value (Balb/c mice [2]; 0.003-3 mg/kg intranasal, day 12 to 14, vs disease controls) was “significantly reduced toward normal”, the “IFNγ in BALF (% inhibition)” value (Balb/c mice [2]; dose 0.003 mg/kg intranasal) was 0% and the “IL-6 in BALF (% inhibition)” value (Balb/c mice [2]; dose 0.003 mg/kg intranasal) was 11%. The “IL-12/IL-23 in BALF (% inhibition)” value (Balb/c mice [2]; dose 0.003 mg/kg intranasal) was 0%, the “TNFα in BALF (% inhibition)” value (Balb/c mice [2]; dose 0.003 mg/kg intranasal) was 17% and the “IFNγ in BALF (% inhibition)” value (Balb/c mice [2]; dose 0.03 mg/kg intranasal) was 25%. For the same compound, the “IL-6 in BALF (% inhibition)” value (Balb/c mice [2]; dose 0.03 mg/kg intranasal) was 44%, the “IL-12/IL-23 in BALF (% inhibition)” value (Balb/c mice [2]; dose 0.03 mg/kg intranasal) was 0% and the “TNFα in BALF (% inhibition)” value (Balb/c mice [2]; dose 0.03 mg/kg intranasal) was 40%. For the same compound, the “IFNγ in BALF (% inhibition)” value (Balb/c mice [2]; dose 0.3 mg/kg intranasal) was 90%, the “IL-6 in BALF (% inhibition)” value (Balb/c mice [2]; dose 0.3 mg/kg intranasal) was 99% and the “IL-12/IL-23 in BALF (% inhibition)” value (Balb/c mice [2]; dose 0.3 mg/kg intranasal) was 100%. The “TNFα in BALF (% inhibition)” value (Balb/c mice [2]; dose 0.3 mg/kg intranasal) was 99%, the “expression of MKP1 (mRNA)” value (MKP-1) was “increased the expression of MKP1 near to control levels” and the ED50 (Balb/c mice [3]) was 0.093 mg/kg. The “PI3K activity measured as PIP3 production” value (PI3K) was “completely suppressed”, the “expression of MIF (mRNA)” value (MIF) was “not significantly affected” and the IC50 [4] was 47.9 nM. For the same compound, the “Maximal % Inhibition of IL-8 release” value [4] was 85.14%.
For `C[C@@H]1C[C@H]2[C@@H]3CCC4=CC(=O)C=C[C@]4(C)[C@@]3(F)[C@@H](O)C[C@]2(C)[C@@]1(O)C(=O)CO` [dexamethasone, reference compound], the IC50 [1] was 14.1 nM, the “Maximal % Inhibition of IL-8 release” value [1] was 83.9% and the IC50 [4] was 13.5 nM. The “Maximal % Inhibition of IL-8 release” value [4] was 19.84 ± 11.46 %.
